Where two headings read alike, the source gives them in different places. Peptide text beside a SMILES is read from it. * marks the point of attachment. X2 = O=C1OC2(C(=O)*)C3C4CC5C6C4C2C6C1(O)C53; X1 = O=C1NC2(N*)C3C4CC5C6C4C2C6C1(O)C53
Experiments:
[1] = biological target: T1, wild type C-South African (C-SA) HIV-1 protease (Human immunodeficiency virus type 1 group M subtype B, UniProt P12497, H557K/I503V/I581L/L507I/L577M/M524I/R529K/T500S); test: in vitro HIV-1 protease inhibition (C-SA PR); format: biochemical, HIV-1 subtype C
T1 construct: Over-expression, extraction and purification of the C-SA protease and in vitro HIV-1 protease activity were reported in our earlier publications; made in house
Source text: Over-expression, extraction and purification of the C-SA protease and in vitro HIV-1 protease activity were reported in our earlier publications. Genetic diversity among HIV-1 subtypes ranges between 25 and 35% at the nucleotide level and variation within subtypes vary from 15 to 20% [48, 49].
The HIV-1 subtype C PR that predominates in South Africa (C-SA PR) is defined as the consensus subtype C PR [51]. This C-SA PR contains eight polymorphic sites (T12S, I15V, L19I, M36I, R41K, H69K, L89M, and I93L) in relation to the wild-type subtype B HIV-1 PR [52].
The procedures followed were the same as reported before ^12,13.

[2] = 1H NMR, ref [19],[20], cited from earlier work
Protocol: It is therefore most likely that the lactam form is the active form in aqueous solution (also used for the IC50 experiments). The conformation for the amide side chain with the lowest energy was determined. In both cases this conformation involved intramolecular hydrogen bonding (O5 ...

Compound	IC50 [1] [µM]	other results
COC(=O)N[C@H](C(=O)N[C@@H](Cc1ccccc1)[C@@H](O)CN(Cc1ccc(-c2ccccn2)cc1)NC(=O)[C@@H](NC(=O)OC)C(C)(C)C)C(C)(C)C [Atazanavir, reference compound]	0.004 ± 0.00071	–
CC[C@H](C)[C@H](NC(=O)[C@H](C)NC(=O)C12OC(=O)C3(O)C4C5CC(C6C5C3C61)C42)C(=O)N[C@@H](CO)C(N)=O (some centres unmarked) [PCU-lactone-CO-AIS]	0.83	–
CC(=O)NC12NC(=O)C3(O)C4C5CC(C6C5C3C61)C42 (racemic) [PCU-lactam]	–	tautomer preference ([2]; (CD3)2SO): major tautomer
CC(=O)NC12N=C(O)C3(O)C4C5CC(C6C5C3C61)C42 (racemic) [PCU-lactim]	–	tautomer preference ([2]; dioxane): dominant
CC[C@H](C)[C@H](NC(=O)[C@H](C)NC(=O)[C@H](CCC(=O)O)NC(=O)C12OC(=O)C3(O)C4C5CC(C6C5C3C61)C42)C(N)=O (some centres unmarked) [PCU-lactone-CO-EAI]	2.6	–
CC[C@H](C)[C@H](NC(=O)[C@@H](N)CO)C(=O)N[C@@H](C)C(=O)N[C@@H](CCC(=O)O)C(=O)NC12NC(=O)C3(O)C4C5CC(C6C5C3C61)C42 (some centres unmarked) [PCU-lactam-NH-EAIS] (H-SIAE-X1)	~0.078	–
CC[C@H](C)[C@H](NC(=O)[C@H](C)NC(=O)[C@H](CCC(=O)O)NC(=O)C12OC(=O)C3(O)C4C5CC(C6C5C3C61)C42)C(=O)N[C@@H](CO)C(N)=O (some centres unmarked) [PCU-lactone-CO-EAIS] (X2-EAIS-NH2)	0.85 ± 0.18	IC50 relative to the corresponding cage lactam peptide ([1]; C-SA HIV-1 protease): eleven times weaker

Source: PMC4387594, “Pentacycloundecane lactam vs lactone norstatine type protease HIV inhibitors: binding energy calculations and DFT study” (Journal of Biomedical Science, 2015)
